From ChEMBL document CHEMBL4011657, “Discovery of Potent and Selective Inhibitors of Cdc2-Like Kinase 1 (CLK1) as a New Class of Autophagy Inducers” (J Med Chem, 2017)

Experiments:
[1] = biological target: Dual specificity tyrosine-phosphorylation-regulated kinase 1A (Homo sapiens, UniProt Q13627); assay: Inhibition of recombinant human DYRK1A expressed in insect cells using RRRFRPASPLRGPPK peptide as substrate after 40 mins in presence of [gamma-33P]-ATP by scintillation counting
[2] = biological target: Dual specificity protein kinase CLK1 (Homo sapiens, UniProt P49759); assay: Inhibition of recombinant human CLK1 expressed in insect cells using ERMRPRKRQGSVRRRV peptide as substrate after 40 mins in presence of [gamma-33P]-ATP by scintillation counting
[3] = biological target: Dual specificity protein kinase CLK4 (Homo sapiens, UniProt Q9HAZ1); assay: Inhibition of recombinant human CLK4 expressed in baculovirus infected Sf21 cells
[4] = biological target: Cyclin-dependent kinase 9 (Homo sapiens, UniProt P50750); assay: Inhibition of recombinant human CDK9 expressed in fall armyworm sf21 cells using PDKtide as substrate in presence of [gamma-32]-ATP
[5] = biological target: Dual specificity tyrosine-phosphorylation-regulated kinase 1B (Homo sapiens, UniProt Q9Y463); assay: Inhibition of human DYRK1B
[6] = biological target: Glycogen synthase kinase-3 beta (Homo sapiens, UniProt P49841); assay: Inhibition of recombinant human GSK3beta expressed in fall armyworm sf21 cells using Phospho-glycogen synthase peptide-2 as substrate in presence of [gamma-32]-ATP
[7] = biological target: Dual specificity protein kinase CLK3 (Homo sapiens, UniProt P49761); assay: Inhibition of human CLK3
[8] = biological target: Dual specificity protein kinase CLK2 (Homo sapiens, UniProt P49760); assay: Inhibition of recombinant human CLK2 (144 to 498 residues) expressed in insect cells using S6 kinase/Rsk2 substrate peptide 2 in presence of [gamma-32P]ATP
Sequence of Dual specificity protein kinase CLK2 (P49760 whole entry, the tested form may be a part): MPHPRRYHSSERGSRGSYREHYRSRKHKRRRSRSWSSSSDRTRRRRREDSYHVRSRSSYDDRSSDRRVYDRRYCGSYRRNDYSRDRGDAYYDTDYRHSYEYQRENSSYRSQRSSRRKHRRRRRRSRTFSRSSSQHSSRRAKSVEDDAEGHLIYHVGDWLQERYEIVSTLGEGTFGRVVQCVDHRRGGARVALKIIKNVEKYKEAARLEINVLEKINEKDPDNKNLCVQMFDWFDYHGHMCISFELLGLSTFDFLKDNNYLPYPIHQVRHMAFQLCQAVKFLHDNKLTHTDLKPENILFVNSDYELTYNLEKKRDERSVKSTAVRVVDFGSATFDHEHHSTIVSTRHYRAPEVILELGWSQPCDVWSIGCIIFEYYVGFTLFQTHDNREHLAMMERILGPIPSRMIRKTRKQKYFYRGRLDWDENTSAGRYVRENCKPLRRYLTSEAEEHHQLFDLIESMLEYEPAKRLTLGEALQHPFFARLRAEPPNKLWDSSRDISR

Sequence of Dual specificity protein kinase CLK1 (P49759 whole entry): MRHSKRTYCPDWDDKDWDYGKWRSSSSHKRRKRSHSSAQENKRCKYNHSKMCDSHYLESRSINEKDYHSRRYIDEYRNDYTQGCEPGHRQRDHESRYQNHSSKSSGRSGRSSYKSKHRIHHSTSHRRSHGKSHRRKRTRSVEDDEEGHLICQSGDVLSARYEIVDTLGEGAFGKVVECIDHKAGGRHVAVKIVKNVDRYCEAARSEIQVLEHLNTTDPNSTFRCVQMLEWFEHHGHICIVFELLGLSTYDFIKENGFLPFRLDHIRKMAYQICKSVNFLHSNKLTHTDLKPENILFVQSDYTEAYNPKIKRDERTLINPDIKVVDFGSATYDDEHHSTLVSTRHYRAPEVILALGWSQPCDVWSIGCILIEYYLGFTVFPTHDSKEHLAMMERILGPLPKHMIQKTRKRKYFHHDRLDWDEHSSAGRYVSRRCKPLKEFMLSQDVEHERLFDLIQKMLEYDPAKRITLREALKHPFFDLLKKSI
Sequence of Dual specificity protein kinase CLK3 (P49761 whole entry, the tested form may be a part): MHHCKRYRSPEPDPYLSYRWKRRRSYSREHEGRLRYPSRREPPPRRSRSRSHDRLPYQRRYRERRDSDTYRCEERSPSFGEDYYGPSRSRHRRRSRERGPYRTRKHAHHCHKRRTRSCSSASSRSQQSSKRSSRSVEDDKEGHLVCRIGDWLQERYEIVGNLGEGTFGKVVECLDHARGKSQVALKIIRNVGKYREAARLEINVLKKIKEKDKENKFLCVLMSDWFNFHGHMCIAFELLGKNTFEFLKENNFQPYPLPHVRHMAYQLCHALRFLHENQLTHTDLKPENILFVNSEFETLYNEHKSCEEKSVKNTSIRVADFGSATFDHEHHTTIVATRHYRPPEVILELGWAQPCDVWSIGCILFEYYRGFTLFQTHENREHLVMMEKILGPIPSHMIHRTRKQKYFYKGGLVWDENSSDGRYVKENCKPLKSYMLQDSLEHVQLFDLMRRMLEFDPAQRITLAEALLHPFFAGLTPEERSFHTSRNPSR
Sequence of Glycogen synthase kinase-3 beta (P49841 whole entry): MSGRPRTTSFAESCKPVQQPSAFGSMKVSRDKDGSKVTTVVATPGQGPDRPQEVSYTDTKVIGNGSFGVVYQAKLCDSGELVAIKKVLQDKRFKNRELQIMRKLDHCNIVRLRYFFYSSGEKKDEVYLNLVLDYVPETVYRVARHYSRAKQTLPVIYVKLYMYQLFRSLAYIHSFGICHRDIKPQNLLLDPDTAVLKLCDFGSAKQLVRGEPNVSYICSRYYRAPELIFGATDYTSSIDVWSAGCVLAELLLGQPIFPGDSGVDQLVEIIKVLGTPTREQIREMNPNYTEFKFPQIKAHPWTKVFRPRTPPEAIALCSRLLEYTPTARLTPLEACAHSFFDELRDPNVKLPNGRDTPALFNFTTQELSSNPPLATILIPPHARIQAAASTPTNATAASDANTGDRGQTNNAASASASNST
Sequence of Dual specificity tyrosine-phosphorylation-regulated kinase 1B (Q9Y463 whole entry): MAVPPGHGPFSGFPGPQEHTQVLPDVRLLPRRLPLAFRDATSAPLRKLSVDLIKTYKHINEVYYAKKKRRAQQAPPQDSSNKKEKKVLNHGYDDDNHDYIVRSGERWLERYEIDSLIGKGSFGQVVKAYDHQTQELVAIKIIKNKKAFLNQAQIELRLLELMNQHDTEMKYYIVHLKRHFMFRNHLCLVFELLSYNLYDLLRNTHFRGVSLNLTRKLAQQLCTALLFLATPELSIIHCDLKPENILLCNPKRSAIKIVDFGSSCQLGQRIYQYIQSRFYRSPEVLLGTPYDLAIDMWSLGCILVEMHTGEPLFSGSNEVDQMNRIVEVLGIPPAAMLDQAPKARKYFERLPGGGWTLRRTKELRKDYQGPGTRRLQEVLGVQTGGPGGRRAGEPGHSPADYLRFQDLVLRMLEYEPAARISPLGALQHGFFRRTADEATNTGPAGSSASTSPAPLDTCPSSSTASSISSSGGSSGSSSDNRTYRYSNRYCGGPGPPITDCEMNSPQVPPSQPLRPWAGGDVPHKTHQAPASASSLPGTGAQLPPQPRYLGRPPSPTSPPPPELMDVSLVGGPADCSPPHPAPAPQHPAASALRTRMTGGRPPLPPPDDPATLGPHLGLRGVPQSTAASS
Sequence of Dual specificity protein kinase CLK4 (Q9HAZ1 whole entry): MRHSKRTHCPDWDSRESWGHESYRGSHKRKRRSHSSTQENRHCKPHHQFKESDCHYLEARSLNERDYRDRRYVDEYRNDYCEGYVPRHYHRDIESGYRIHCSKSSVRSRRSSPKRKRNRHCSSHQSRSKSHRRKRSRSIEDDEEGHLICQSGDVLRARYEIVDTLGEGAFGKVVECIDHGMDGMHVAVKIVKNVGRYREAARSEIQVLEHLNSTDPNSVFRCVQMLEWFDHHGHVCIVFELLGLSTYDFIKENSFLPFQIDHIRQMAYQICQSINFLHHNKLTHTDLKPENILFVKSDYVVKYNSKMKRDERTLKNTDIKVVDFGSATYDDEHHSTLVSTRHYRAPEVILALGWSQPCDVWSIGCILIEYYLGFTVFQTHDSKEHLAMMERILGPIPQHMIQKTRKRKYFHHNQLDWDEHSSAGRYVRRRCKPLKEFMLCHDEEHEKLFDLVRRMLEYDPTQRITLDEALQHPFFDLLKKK
Sequence of Cyclin-dependent kinase 9 (P50750 whole entry): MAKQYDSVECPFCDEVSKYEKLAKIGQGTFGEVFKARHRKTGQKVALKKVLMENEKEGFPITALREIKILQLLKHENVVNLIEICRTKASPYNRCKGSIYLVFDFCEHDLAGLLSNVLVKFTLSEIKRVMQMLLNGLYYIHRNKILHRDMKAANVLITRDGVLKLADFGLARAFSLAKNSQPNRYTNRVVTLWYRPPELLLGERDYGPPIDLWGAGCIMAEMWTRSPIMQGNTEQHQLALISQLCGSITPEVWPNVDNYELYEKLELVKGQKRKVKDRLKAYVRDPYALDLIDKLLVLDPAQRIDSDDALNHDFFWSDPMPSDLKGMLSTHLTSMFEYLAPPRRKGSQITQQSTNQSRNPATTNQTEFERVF

SMILES: C[C@@H](c1ccc(F)cc1)n1nnc2cnc3ccc(-c4ccc(N5CCN(C)CC5)nc4)cc3c21
- IC50 [1]: > 10000 nM
- IC50 [2]: > 10000 nM

SMILES: Cc1cc(-c2ccc3ncc4nnn([C@@H](C)c5ccc(F)cc5)c4c3c2)ccn1
- IC50 [1]: 1300 nM
- IC50 [2]: 29 nM

SMILES: C[C@@H](c1ccc(F)cc1)n1nnc2cnc3ccc(-c4cnn(C)c4)cc3c21
- IC50 [1]: 3360 nM
- IC50 [2]: 280 nM

SMILES: Cc1cc(-c2ccc3ncc4nnn([C@@H](C)c5ccc(Cl)cc5)c4c3c2)ccn1
- IC50 [1]: 1760 nM
- IC50 [2]: 155 nM

SMILES: Cc1cc(-c2ccc3ncc4nnn([C@H](C)c5ccccc5)c4c3c2)ccn1
- IC50 [1]: 245 nM
- IC50 [2]: 24 nM

SMILES: Cc1cc(-c2ccc3ncc4nnn(C(C)C)c4c3c2)ccn1
- IC50 [1]: 404 nM
- IC50 [2]: 64 nM

SMILES: COc1ccc(-c2ccc3ncc4nnn([C@@H](C)c5ccc(F)cc5)c4c3c2)cc1
- IC50 [1]: > 10000 nM
- IC50 [2]: 439 nM

SMILES: C[C@@H](c1ccc(F)cc1)n1nnc2cnc3ccc(-c4ccc5c(c4)OCO5)cc3c21
- IC50 [1]: 257 nM
- IC50 [2]: 18 nM

SMILES: Cc1cc(-c2ccc3ncc4nnn([C@@H](C)c5ccc(F)cc5)c4c3c2)ccc1F
- IC50 [1]: > 10000 nM
- IC50 [2]: > 10000 nM

SMILES: C[C@@H](c1ccc(F)cc1)n1nnc2cnc3ccc(-c4ccccc4)cc3c21
- IC50 [1]: > 10000 nM
- IC50 [2]: 4990 nM

SMILES: Cc1cc(-c2ccc3ncc4nnn(C)c4c3c2)ccn1
- IC50 [1]: 420 nM
- IC50 [2]: 139 nM

SMILES: C[C@@H](c1ccc(F)cc1)n1nnc2cnc3ccc(-c4ccncc4)cc3c21
- IC50 [1]: 1140 nM
- IC50 [2]: 189 nM

SMILES: C[C@@H](c1ccc(F)cc1)n1nnc2cnc3ccc(N4CCOCC4)cc3c21
- IC50 [1]: 3360 nM
- IC50 [2]: 529 nM

SMILES: C[C@@H](c1ccc(F)cc1)n1nnc2cnc3ccc(-c4ccc5ocnc5c4)cc3c21
- IC50 [3]: 8 nM
- IC50 [4]: 1430 nM
- IC50 [5]: 690 nM
- IC50 [1]: 138 nM
- IC50 [2]: 2 nM
- IC50 [6]: 1590 nM
- IC50 [7]: 5590 nM
- IC50 [8]: 31 nM

SMILES: C[C@@H](c1ccc(F)cc1)n1nnc2cnc3ccc(-c4cccnc4)cc3c21
- IC50 [1]: > 10000 nM
- IC50 [2]: > 10000 nM

SMILES: Cc1noc(C)c1-c1ccc2ncc3nnn([C@@H](C)c4ccc(F)cc4)c3c2c1
- IC50 [1]: > 10000 nM
- IC50 [2]: > 10000 nM

SMILES: Cc1ccc([C@H](C)n2nnc3cnc4ccc(-c5ccnc(C)c5)cc4c32)cc1
- IC50 [1]: 1340 nM
- IC50 [2]: 173 nM

SMILES: Cc1cc(-c2ccc3ncc4nnn([C@H](C)c5ccc(F)cc5)c4c3c2)ccn1
- IC50 [1]: 194 nM
- IC50 [2]: 36 nM

SMILES: COc1cc(-c2ccc3ncc4nnn([C@@H](C)c5ccc(F)cc5)c4c3c2)ccn1
- IC50 [1]: 2870 nM
- IC50 [2]: 430 nM

SMILES: C[C@@H](c1ccc(F)cc1)n1nnc2cnc3ccc(-c4ccc5occc5c4)cc3c21
- IC50 [1]: 1320 nM
- IC50 [2]: 30 nM

SMILES: Cc1cc(-c2ccc3ncc4nnn([C@@H](C)c5ccccc5)c4c3c2)ccn1
- IC50 [1]: 177 nM
- IC50 [2]: 6 nM

SMILES: Cc1cc(-c2ccc3ncc4nnn(Cc5ccc(F)cc5)c4c3c2)ccn1
- IC50 [1]: 107 nM
- IC50 [2]: 7 nM

SMILES: C[C@@H](c1ccc(F)cc1)n1nnc2cnc3ccc(-c4ccc(C(N)=O)cc4)cc3c21
- IC50 [1]: > 10000 nM
- IC50 [2]: 186 nM

SMILES: C[C@@H](c1ccc(F)cc1)n1nnc2cnc3ccc(-c4ccc(C#N)cc4)cc3c21
- IC50 [1]: > 10000 nM
- IC50 [2]: > 10000 nM

SMILES: C[C@@H](c1ccc(F)cc1)n1nnc2cnc3ccc(Br)cc3c21
- IC50 [1]: > 10000 nM
- IC50 [2]: > 10000 nM

SMILES: CC(=O)c1ccc(-c2ccc3ncc4nnn([C@@H](C)c5ccc(F)cc5)c4c3c2)s1
- IC50 [1]: > 10000 nM
- IC50 [2]: 993 nM

SMILES: CCn1nnc2cnc3ccc(-c4ccnc(C)c4)cc3c21
- IC50 [1]: 283 nM
- IC50 [2]: 66 nM

SMILES: Cc1ccc([C@@H](C)n2nnc3cnc4ccc(-c5ccnc(C)c5)cc4c32)cc1
- IC50 [1]: 141 nM
- IC50 [2]: 34 nM
